Results: the OPERA property sets (Mansouri et al. 2018)

Details: for log10 BCF / log10 biotransformation half-life (days): fish

Row | SMILES | melting point [°C] | boiling point [°C] | other results
1 | O=C(O)c1cccc(O)c1 | 202 | – | ready biodegradability: readily biodegradable
2 | CCC(C)(S(=O)(=O)CC)S(=O)(=O)CC | 76 | – | –
3 | CC(C)=CCC/C(C)=C/C=C/C(C)=C/C=C/C(C)=C/C=C/C=C(C)/C=C/C=C(C)/C=C/C=C(\C)CCC=C(C)C | 175 | – | –
4 | COc1nc(C)nc(NC(=O)NS(=O)(=O)c2ccccc2OCCCl)n1 | 186 | – | log10 Koc (L/kg): 2.02
5 | CCc1ccc[nH]1 | – | 164 | –
6 | O=NN1CCCCC1 | – | 219 | –
7 | C=Cc1ccc(C)cc1 | -34.1 | 173 | log10 vapour pressure (mmHg): 0.258; log10 BCF: 1.5
8 | FC(F)=C(Cl)Cl | -116 | 19 | –
9 | CCCCCCCC1CCCCC1 | -30 | 244 | log10 vapour pressure (mmHg): -1.4; log10 biotransformation half-life (days): 0.17
10 | CC(=O)c1cccnc1 | 13.5 | 220 | log10 Henry constant (atm·m³/mol): -7.67
11 | CCCCc1c(C)nc(N(C)C)nc1O | 102 | – | log10 Koc (L/kg): 1.95; log10 vapour pressure (mmHg): -4.96
12 | O=C1Cc2ccccc2N1 | 128 | – | –
13 | NC(Cc1n[nH]c2ccccc12)C(=O)O (stereo not drawn) | 240 | – | –
14 | CCB(O)O | 40 | – | –
15 | CCCCC(C)(O)CC (stereo not drawn) | -83 | 163 | –
16 | CC(C)(C)C(=O)OC(=O)C(C)(C)C | – | 193 | log10 vapour pressure (mmHg): -0.356
17 | C=C[C@@](C)(O)CC/C=C(/C)CCC=C(C)C | – | 276 | –
18 | CCCCN1CCOCC1 | -57.1 | 214 | –
19 | CC(=O)Nc1nc(=O)c2ncn(COCCOC(C)=O)c2[nH]1 | 204 | – | –
20 | CCCCCCCCCCCC(=O)CC | 34 | – | –
21 | CCC(=O)OC(C)(C)C | – | 118 | –
22 | CCCCCCCCCC(C)O (stereo not drawn) | – | – | log10 vapour pressure (mmHg): -1.48
23 | N=C(N)N | 50 | – | –

Row | SMILES | melting point [°C] | boiling point [°C] | other results
24 | CCC(Br)CBr (stereo not drawn) | -65.4 | 166 | log10 vapour pressure (mmHg): 0.491
25 | CN(C)C(=O)OC1N=C(c2ccccc2)c2cc(Cl)ccc2N(C)C1=O (stereo not drawn) | 174 | – | –
26 | C=CC(C)(C)C | -115 | 41.2 | log10 vapour pressure (mmHg): 2.63
27 | Nc1ccc(N)c2ccccc12 | 120 | – | –
28 | C#C[C@]1(O)CC[C@H]2[C@@H]3CCC4=CC(=O)CC[C@@H]4[C@H]3CC[C@@]21C | 204 | – | –
29 | Cc1ncc[nH]1 | 144 | 267 | ready biodegradability: not readily biodegradable
30 | Cn1ccc(=O)c2ccccc21 | 152 | – | –
31 | COC(=O)C(C)C | -84.7 | 92.5 | log10 vapour pressure (mmHg): 1.69
32 | c1ccc2sccc2c1 | 32 | 221 | log10 Koc (L/kg): 3.48; log10 biodegradation half-life (days): 1.4; log10 vapour pressure (mmHg): -0.624
33 | CCCCOCCC | – | 118 | –
34 | CCC(Br)C(=O)Cl (stereo not drawn) | – | 151 | –
35 | ClCCl | -95.1 | 40 | log10 Henry constant (atm·m³/mol): -2.49; log10 Koa: 2.27; log10 Koc (L/kg): 1.44; log10 vapour pressure (mmHg): 2.64; ready biodegradability: not readily biodegradable; log10 BCF: 1.36; log10 biotransformation half-life (days): -0.51
36 | COc1cc(C)c(/C=C/C(C)=C/C=C/C(C)=C/C(=O)O)c(C)c1C | 229 | – | –
37 | CNC[C@H](O)c1ccccc1 | 44 | – | –
38 | O=Cc1ccccc1Cl | 12.4 | 212 | log10 vapour pressure (mmHg): -0.638; ready biodegradability: not readily biodegradable
39 | C=CCOCC=C | -6 | 94 | –
40 | CCOCC(=O)OCC | – | 158 | –
41 | C#CCCO | -63.6 | 129 | –
42 | O=[N+]([O-])c1cc([N+](=O)[O-])c2ccccc2c1 | 148 | – | –
43 | CCC(O)(CC)CC | -12.5 | 142 | –
44 | Cc1cccc(OP(=O)(Oc2cccc(C)c2)Oc2cccc(C)c2)c1 | 25.5 | – | log10 Henry constant (atm·m³/mol): -4.08; ready biodegradability: readily biodegradable
45 | c1ccc2c(c1)Cc1ccccc1C2 | 111 | 305 | –
46 | CCc1oc2ccccc2c1C(=O)c1cc(Br)c(O)c(Br)c1 | 151 | – | –

Row | SMILES | melting point [°C] | boiling point [°C] | other results
47 | O=NN1CN2CN(C1)CN(N=O)C2 | 204 | – | ready biodegradability: readily biodegradable
48 | Clc1cc(Cl)c(-c2cc(Cl)c(Cl)c(Cl)c2)cc1Cl | – | – | log10 biotransformation half-life (days): 2.43
49 | O=C(O)CCc1ccccc1 | 107 | 280 | log10 vapour pressure (mmHg): -2.57
50 | CC(N)CN (stereo not drawn) | – | 120 | log10 vapour pressure (mmHg): 1.03
51 | CCCCCC(C=O)=Cc1ccccc1 | 80 | – | ready biodegradability: readily biodegradable
52 | CC(C)(S)C(=O)O | 47 | – | –
53 | CCCCCCCC=CC=O | – | 230 | –
54 | Cc1ccc2c(C)c(C)ccc2c1 | 14 | – | –
55 | ClCC(Cl)C(Cl)Cl (stereo not drawn) | – | 180 | –
56 | CCCCNC(=O)n1cc(F)c(=O)[nH]c1=O | 136 | – | –
57 | CC(C)(Cl)C=O | – | 90 | –
58 | FSC(F)(F)F | – | 148 | –
59 | CCCCCCCCCCCCc1ccc(N)cc1 | 40.5 | – | ready biodegradability: readily biodegradable
60 | CC(C)C(C)N (stereo not drawn) | -50 | 85.5 | –
61 | Clc1ccc(Oc2c(Cl)cc(Cl)c(Cl)c2Cl)c(Cl)c1 | – | – | log10 biotransformation half-life (days): 2.76
62 | COc1ccccc1C(=O)c1ccccc1 | 41 | – | –
63 | O=C(O)c1cc(F)c(F)c(F)c1 | 98 | – | –
64 | c1c2c(cc3c1CCCC3)CCCC2 | 78 | 294 | –
65 | c1cc(-c2ncco2)cc(-c2ncco2)c1 | – | – | ready biodegradability: not readily biodegradable
66 | Cc1ccc(Cl)cc1[N+](=O)[O-] | 38 | 242 | log10 BCF: 1.92
67 | Nc1ccc(F)c(Cl)c1 | 45.5 | 228 | –
68 | N#Cc1cc(I)c([O-])c(I)c1.[Na+] | 360 | – | –
69 | O=[N+]([O-])c1ccccc1Cl | – | – | ready biodegradability: not readily biodegradable; log10 BCF: 1.17; log10 biotransformation half-life (days): -0.58

Row | SMILES | melting point [°C] | boiling point [°C] | other results
70 | O=C=NC1CCCCC1 | -80 | 172 | log10 vapour pressure (mmHg): 0.0086
71 | CNC(=S)NCO | 89 | – | –
72 | CCCCCCCCCCCC(=O)c1ccccc1 | 47 | – | –
73 | C=CCOC(Cn1ccnc1)c1ccc(Cl)cc1Cl (stereo not drawn) | 52.7 | 347 | log10 Koc (L/kg): 3.73; log10 vapour pressure (mmHg): -5.92
74 | COc1ccc(C#N)cc1 | 61.5 | 256 | –
75 | Clc1ccc(Cl)c2c(Cl)ccc(Cl)c12 | – | – | log10 Koa: 8.45
76 | O=S(=O)(Cl)C(F)(F)F | – | 30.5 | –
77 | O=C1c2c(O)ccc(Nc3ccccc3)c2C(=O)c2c([N+](=O)[O-])ccc(O)c21 | – | – | ready biodegradability: not readily biodegradable
78 | CCOC(=O)CCCCC(=O)OCC | -19.8 | 245 | log10 vapour pressure (mmHg): -1.24
79 | CCNCCN | – | 129 | –
80 | O=C(c1ccccc1)c1ccccc1C(F)(F)F | 61 | – | –
81 | Cn1cncc1C[C@H]1COC(=O)[C@@H]1[C@@H](O)c1ccccc1 | 179 | – | –
82 | Oc1ccc2c(c1)Cc1ccccc1-2 | 168 | – | –
83 | Clc1cc(Cl)c(Cl)c(-c2c(Cl)ccc(Cl)c2Cl)c1 | – | – | log10 Henry constant (atm·m³/mol): -4.25; log10 biotransformation half-life (days): 2.32
84 | CC/C=C\C/C=C\C/C=C\CCCCCCCC(=O)OC | – | – | log10 vapour pressure (mmHg): -5.29
85 | NC(=O)OCC(COC(N)=O)c1ccccc1 | 152 | – | –
86 | CCCCc1ccc2ccccc2c1 | -5 | 292 | –
87 | CC(=O)CCCCBr | – | 216 | –
88 | CN1CC[C@]23CCCC[C@H]2[C@H]1Cc1ccc(O)cc13 | 198 | – | –
89 | OCCCCCCCCCCCCCCO | 85.8 | – | –
90 | CCOc1ccccc1C(=O)O | 20.7 | – | –
